Source: patent US20150352134A1, “COMPOSITION FOR TOPICAL SKIN APPLICATION CONTAINING GINSENOSIDE F2 DERIVED FROM HYDROPONIC GINSENG” (AMOREPACIFIC CORPORATION, priority 2012, published 2015)

Tests used:
[1] = test system: 3T3-L1 cells; assay: Lipogenesis inhibition in 3T3-L1 cells (Sudan III dyeing); assay type: cell-based, mouse; conditions: caffeine 50 μM; visual evaluation of fat accumulation
Experimental: The mouse fibroblast cell line, 3T3-L1 cells are immobilized in a 6-well culture plate filled with Dulbecco's modified eagle's medium (DMEM) (GIBCO BRL, Life Technologies, Inc.) containing 10% fetal bovine serum (FBS) at an amount of 1×10^5 cells/well. After 2 days, the used medium is replaced with a new DMEM (containing 10% FBS) medium to culture the cells for 2 days. […] After 5 days, the used DMEM medium is replaced with a normal medium (DMEM containing 10% FBS). The cells are cultured and observed until they are morphologically changed into fat cells. In order to evaluate the ginsenoside F2 in regards to the inhibitory effect on the fat accumulation in the fat cells, the completely differentiated 3T3-L1 fat cells are dyed with Sudan III ([…], Sigma-Aldrich). The fat cells are immobilized with 4% para-formaldehyde (pH 7.2) at the room temperature in a phosphate buffer solution. The fat cells are washed with phosphate-buffered saline (PBS) and then dyed with Sudan III. The picture of the fat cells is taken for visual evaluation. The control uses a medium using neither a test substance nor a comparative substance. The comparative control group is treated with 50 μM caffeine. The fat accumulation inhibitory ability is evaluated based on the degree of dying. The degree of dying is graded +++, ++, +, and - in the decreasing order.

[2] = test system: Escherichia coli; assay: Antibacterial effect, MIC; assay type: cell-based; conditions: 48 hours, 32°
Experimental: (§1) The antibacterial testing is carried out in order to evaluate the antibacterial effect of ginsenoside F2. The detailed testing method is as follows. Staphylococcus aureus, Escherichia coli, and pseudomonas aeruginosa strains are cultured with a tryptic soy broth, and candida albicans and aspergillus niger strains are cultured with sabouraud dextrose broth. The test bacterial liquid is the 1/100 (1/10 for candida albicans strain) diluted solution of the culture medium diluted with each medium. For aspergillus niger, the test bacterial liquid is the spore suspension prepared to 2×10^8 cfu/ml. 0.15 ml of the test bacterial liquid is added to 15 ml of each culture medium to prepare a well-blended diluted solution. 16 μl of the sample is put into each well on the first row of a 96-well plate, and 184 μl of the diluted solution is added to each well on the first row. Then, 100 μl of the diluted solution is put into each of the other wells. The mixed solution of the first row is sufficiently stirred, and 100 μl of the mixed solution is added to each well on the second row of the 96-well plate and stirred sufficiently. 100 μl of the mixed solution on the second row is taken and added to each well on the third row to achieve two-fold serial dilution. Straphylococcus aureus, Escherichia coli, and Pseudomonas aeruginosa strains are cultured in a thermostat container at 32°, and Candida albicans and Aspergillus niger strains are cultured in a thermostat container at 25° C. 48 hours later, the cell proliferation is determined by the turbidity index and microscopic observation to determine the minimum inhibitory concentration (MIC).

[3] = test system: Pseudomonas aeruginosa; assay: Antibacterial effect, MIC; assay type: cell-based; conditions: 48 hours, 32°
Experimental: as §1

[4] = test system: Aspergillus niger; assay: Antibacterial effect, MIC; assay type: cell-based; conditions: 48 hours, 25° C.
Experimental: as §1

[5] = test system: Candida albicans; assay: Antibacterial effect, MIC; assay type: cell-based; conditions: 48 hours, 25° C.
Experimental: as §1

[6] = test system: Straphylococcus aureus; assay: Antibacterial effect, MIC; assay type: cell-based, Staphylococcus aureus; conditions: 48 hours, 32°
Experimental: as §1, with “100 μl of the mixed solution on the second row is taken and added to each well on the third row to achieve two-fold serial dilution. Straphylococcus aureus, Escherichia coli, and Pseudomonas aeruginosa strains are cultured in a thermostat container at 32°, and Candida albicans and Aspergillus niger strains are cultured in a thermostat container at 25° C.” left out

[7] = molecular target: T1, PAR-2 (Homo sapiens, UniProt P55085); assay: Itching relief: inflow of Ca2+ into HaCaT keratinocytes after trypsin or PAR-2 activated peptide; assay type: cell-based
T1 construct: host or cells: HaCaT keratinocytes
T1 sequence (P55085 26-397): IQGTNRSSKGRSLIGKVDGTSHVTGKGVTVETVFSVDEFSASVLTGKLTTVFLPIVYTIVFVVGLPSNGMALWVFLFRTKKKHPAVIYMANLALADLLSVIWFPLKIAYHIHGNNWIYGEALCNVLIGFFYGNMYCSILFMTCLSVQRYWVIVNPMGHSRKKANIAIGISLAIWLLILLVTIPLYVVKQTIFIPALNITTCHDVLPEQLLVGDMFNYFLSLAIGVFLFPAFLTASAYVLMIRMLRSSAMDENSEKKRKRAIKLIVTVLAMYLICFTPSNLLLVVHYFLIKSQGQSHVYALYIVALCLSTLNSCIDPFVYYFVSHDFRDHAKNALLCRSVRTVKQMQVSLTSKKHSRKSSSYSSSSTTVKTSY
Experimental: One day before the testing, keratinocytes (HaCaT purchased from ATCC) are injected into a 96-well plate at a rate of 4×10^4 cells/well and cultured in an incubator under conditions of 5% CO2 and 37° C. for 24 hours. After 24 hours, the culture plate is washed with HBSS (Hank's Balanced Salt Solution) buffer twice, and a reaction buffer (2 μM Fluo-4-AM, 20% pluronic acid, 2.5 mM probenecid) is added to the cells. The culture plate is kept in an incubator under conditions of 5% CO2 and 37° C. for 30 minutes and allowed to react at the room temperature for 30 minutes. Then, the culture plate is washed with HBSS buffer twice, and the cells are treated with ginsenoside F2 at a concentration (%) as given in Table 25.
After completion of the reaction for 10 minutes, the cells are treated with 2 U/ml trypsin or 5 μM PAR-2 activated peptide (SLIGKV), and then the change of Ca^2+ concentration in the cells for 80 seconds is measured. The measurement method uses FlexStation3® (Molecular Device, U.S.A.). The difference between minimum and maximum flex values for 80 seconds after treatment with 2 U/ml trypsin or 5 μM PAR-2 activated peptide (SLIGKV) in combination with ginsenoside F2 is compared with the difference between minimum and maximum flex values for 80 seconds after treatment with 2 U/ml trypsin or 5 μM PAR-2 activated peptide (SLIGKV) alone.

`CC(C)=CCC[C@](C)(O[C@@H]1O[C@H](CO)[C@@H](O)[C@H](O)[C@H]1O)[C@H]1CC[C@]2(C)[C@@H]1[C@H](O)C[C@@H]1[C@@]3(C)CC[C@H](O[C@@H]4O[C@H](CO)[C@@H](O)[C@H](O)[C@H]4O)C(C)(C)[C@@H]3CC[C@]12C` [Ginsenoside F2, ginsenoside F2] was tested, and the “Degree of Sudan III staining (visual grade)” value [1] was “−”, the “MIC (%) Escherichia coli” value [2] was 0.13% and the “MIC (%) Pseudomonas aeruginosa” value [3] was 0.09%. For the same molecule, the “MIC (%) Aspergillus niger” value [4] was >2%, the “MIC (%) Candida albicans” value [5] was >4% and the “MIC (%) Straphylococcus aureus” value [6] was 0.07%. The “Inhibition rate (%) on inflow of Ca^2+ into cells, Trypsin (2 U/ml)” value (“Inhibition rate (%) on inflow” for short) ([7]; 0.05% ginsenoside F2) was 23%, the “Inhibition rate (%) on inflow” value ([7]; 0.1% ginsenoside F2) was 30% and the “Inhibition rate (%) on inflow” value ([7]; 1.0% ginsenoside F2) was 41%. The inhibition at 0.05 % ([7]; HaCaT, 0.05% ginsenoside F2, read-out: Inhibition rate (%) on inflow of Ca^2+ into cells, PAR-2 activated peptide (5 μM)) was 26%, the inhibition at 0.1 % ([7]; HaCaT, 0.1% ginsenoside F2, read-out: Inhibition rate (%) on inflow of Ca^2+ into cells, PAR-2 activated peptide (5 μM)) was 35% and the inhibition at 0.5 % ([7]; HaCaT, 0.5% ginsenoside F2, read-out: Inhibition rate (%) on inflow of Ca^2+ into cells, PAR-2 activated peptide (5 μM)) was 40%. It also gave an inhibition at 1 % ([7]; HaCaT, 1.0% ginsenoside F2, read-out: Inhibition rate (%) on inflow of Ca^2+ into cells, PAR-2 activated peptide (5 μM)) of 47%.
